Results as given in the supplement of paper PMC10307832.

Assays:
Assay in all cases: relative viability (nuclei count vs DMSO), 5 days (fraction); higher = more cells survive
Lapatinib + Linsitinib = compound: CS(=O)(=O)CCNCc1ccc(-c2ccc3ncnc(Nc4ccc(OCc5cccc(F)c5)c(Cl)c4)c3c2)o1 [Lapatinib] + C[C@]1(O)C[C@@H](c2nc(-c3ccc4ccc(-c5ccccc5)nc4c3)c3c(N)nccn32)C1 [Linsitinib] (partner 1 µM)
In short: (§1)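 Lung cancer cell lines in 1536-well plates got either a single drug or a fixed anchor-drug dose together with five library-drug doses (not always all listed) in √10 steps, by pin tool, on the day after seeding. Nuclei were counted after 5 days, and relative viability is the treated-to-vehicle ratio of nuclei counts. Values are medians of duplicate plates.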

Wnt-C59 + Phenformin = compound: CC1=NC=CC(=C1)C2=CC=C(C=C2)CC(=O)NC3=CC=C(C=C3)C4=CN=CC=C4 [Wnt-C59] + N=C(N)NC(=N)NCCc1ccccc1 [Phenformin] (partner 250 µM)
In short: as §1

Lapatinib + Palbociclib = compound: CS(=O)(=O)CCNCc1ccc(-c2ccc3ncnc(Nc4ccc(OCc5cccc(F)c5)c(Cl)c4)c3c2)o1 [Lapatinib] + CC(=O)c1c(C)c2cnc(Nc3ccc(N4CCNCC4)cn3)nc2n(C2CCCC2)c1=O [Palbociclib] (partner 0.5 µM)
In short: as §1

Lapatinib + OSI-027 = compound: CS(=O)(=O)CCNCc1ccc(-c2ccc3ncnc(Nc4ccc(OCc5cccc(F)c5)c(Cl)c4)c3c2)o1 [Lapatinib] + COc1cccc2cc(-c3nc([C@H]4CC[C@H](C(=O)O)CC4)n4ncnc(N)c34)[nH]c12 [OSI-027] (partner 0.5 µM)
In short: as §1

Cell Line	relative viability (Lapatinib + Linsitinib; first compound 0.02 µM)	relative viability (Lapatinib + Linsitinib; first compound 0.06325 µM)	relative viability (Lapatinib + Linsitinib; first compound 0.2 µM)	relative viability (Lapatinib + Linsitinib; first compound 0.6325 µM)	relative viability (Lapatinib + Linsitinib; first compound 2 µM)	relative viability (Wnt-C59 + Phenformin; first compound 0.001 µM)	relative viability (Wnt-C59 + Phenformin; first compound 0.01 µM)	relative viability (Wnt-C59 + Phenformin; first compound 0.03162 µM)	relative viability (Wnt-C59 + Phenformin; first compound 0.1 µM)	relative viability (Lapatinib + Palbociclib; first compound 0.02 µM)	relative viability (Lapatinib + Palbociclib; first compound 0.06325 µM)	relative viability (Lapatinib + Palbociclib; first compound 0.2 µM)	relative viability (Lapatinib + Palbociclib; first compound 0.6325 µM)	relative viability (Lapatinib + Palbociclib; first compound 2 µM)	relative viability (Lapatinib + OSI-027; first compound 0.02 µM)	relative viability (Lapatinib + OSI-027; first compound 0.06325 µM)	relative viability (Lapatinib + OSI-027; first compound 0.2 µM)	relative viability (Lapatinib + OSI-027; first compound 0.6325 µM)	relative viability (Lapatinib + OSI-027; first compound 2 µM)
NCI-H1651	0.946	0.884	0.922	0.846	0.9	0.344	0.345	0.377	0.332	0.547	0.456	0.483	0.478	0.514	0.648	0.454	0.622	0.648	0.519
NCI-H1703	0.695	0.642	0.888	0.512	0.662														
NCI-H522						0.614	0.599	0.601	0.64		0.749	0.954	1.02	0.777		0.565	0.658	0.681	0.589
HCC-366		0.404	0.702	0.746	0.472	0.614	0.605	0.668	0.528		0.334	0.339	0.356	0.323		0.58	0.838	0.859	0.373
SK-LU-1		0.783	1.19	1.01	1.24	0.476	0.49	0.506	0.503	0.36	0.394	0.455	0.44	0.392	0.292	0.219	0.286	0.353	0.324
NCI-H520	0.9	0.799	1.04	0.992	1.16	0.503	0.59	0.59	0.55	0.221	0.2	0.231	0.291	0.238	0.276	0.181	0.321	0.266	0.232
NCI-H1437	0.898	0.968	1.05	0.864	0.875	0.297	0.296	0.297	0.26	0.281	0.297	0.305	0.322	0.294	0.814	0.684	0.841	0.751	0.645
NCI-H460	0.736	0.776	0.843	0.573	0.674	0.488	0.524	0.519	0.484	0.116	0.168	0.149	0.149	0.118	0.544	0.438	0.481	0.533	0.477
LK-2	0.704	0.487	0.377	0.66	0.575	0.479	0.379	0.481	0.321	0.634		0.832		1.01	0.217		0.228	0.238	0.228
NCI-H358	0.548		0.512	0.329	0.277	0.343	0.257	0.431	0.337	0.16	0.124	0.13	0.132	0.104	0.567	0.285	0.439	0.285	0.215
NCI-H2085	0.919	0.89	0.811	0.813	0.62	0.757	0.649	0.691	0.673	0.485	0.462	0.474	0.445	0.338		0.536	0.61	0.584	0.269
NCI-H2405		0.805	0.918	0.973	0.768	0.413	0.336	0.366	0.384		0.452		0.505	0.518	0.441	0.382	0.655	0.649	0.604
NCI-H1666	0.822	0.681	0.704	0.611	0.248	0.54	0.498	0.531	0.561	0.63	0.632	0.674	0.65	0.633	0.828	0.732	0.645	0.657	0.316
NCI-H322M	0.931	0.839	0.803	0.767	0.592	0.775	0.683	0.629	0.581	0.464	0.432	0.455	0.446	0.434	0.591	0.374	0.571	0.46	0.431
NCI-H1563	1.12	1.13	1.03	1.2	1.12	0.688	0.673	0.693	0.666						0.716	0.654	0.772	0.715	0.715
IA-LM	0.655	0.605	0.583	0.541	0.792														
CAL-12T	0.761	0.83	0.634	0.725	0.579	0.564	0.581	0.576	0.566	0.197	0.304	0.319	0.329	0.137		0.32	0.497	0.319	0.313
NCI-H1395		1.01	1.03	1.03	1.01	0.442	0.423	0.495	0.429		0.621	0.581	0.598	0.616	0.535	0.597	0.612	0.636	0.627
NCI-H3122	0.996	0.954	0.996	1.04	0.999	0.369	0.366	0.36	0.362	0.185	0.176	0.17	0.198	0.236		0.556	0.962	0.902	0.893
